Reference: ChEMBL document CHEMBL1201862, “PubChem BioAssay data set” (2004)
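96-well plates; 48 h exposure; 5 concentrations. Endpoints by linear interpolation between flanking doses. Not reached: highest tested concentration assigned. GI50: concentration for 50% inhibition of growth.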 Activity calls are given as the source filed them. Rule as the data show it: active = GI50 up to about 1.1 µM and inactive = higher.

Legend:
Assay in all cases: inhibition of tumour cell growth, NCI panel, 48 h
[1] = test system: BT-549
[2] = test system: DLD-1
[3] = test system: KM-20L2
[4] = test system: LXFL 529
[5] = test system: M19-MEL
[6] = test system: SNB-78
[7] = test system: DMS-273
[8] = test system: HOP-18

## CN(C)C(=O)OC(Cn1cncn1)(Cn1cncn1)c1ccc(Cl)cc1Cl
[1]
  GI50: > 100 µM (inactive)

## CC1=NN(C(=O)c2ccccc2O)C(=O)/C1=C/c1ccc([N+](=O)[O-])cc1
[1]
  GI50: 0.328 µM (active)
[2]
  GI50: 0.0643 µM (active)
[3]
  GI50: 7.96 µM (inactive)
[4]
  GI50: 0.0586 µM (active)
[5]
  GI50: 2.3 µM (inactive)
[6]
  GI50: 0.0861 µM (active)

## COc1ccc2ccccc2c1C1NC(=O)c2ccccc2N1 (stereo not given)
[1]
  GI50: > 100 µM (inactive)

## O=S(=O)(c1ccccc1)C1(C2(S(=O)(=O)c3ccccc3)CCN=N2)CCN=N1 (stereo not given)
[2]
  GI50: > 100 µM (inactive)
[7]
  GI50: > 100 µM (inactive)
[4]
  GI50: > 100 µM (inactive)
[5]
  GI50: > 100 µM (inactive)

## CC(N)(Cc1c[nH]c2ccccc12)C(=O)O (stereo not given)
[1]
  GI50: > 100 µM (inactive)

## Fc1ccc(Nc2nnc(-c3ccccn3)s2)cc1
[1]
  GI50: > 100 µM (inactive)

## CCOC(=O)/C(C(N)=O)=C(O)/C(O)=C(\Br)C(=O)c1ccccc1
[1]
  GI50: 18.6 µM (inactive)

## CC1(CCC2C=CCC2)CCCNC1=S (stereo not given)
[1]
  GI50: > 10 µM (inactive)

## CCOC(=O)c1c(-c2ccc(OC)cc2)c(C#N)c(=S)n(C2OC(CO)C(O)C(O)C2O)c1-c1ccccc1 (stereo not given)
[1]
  GI50: 37.4 µM (inactive)

## Clc1ncnc2c1ncn2CCCCCCCCCCCCn1cnc2c(Cl)ncnc21
[2]
  GI50: 7.94 µM (inactive)
[7]
  GI50: 2.71 µM (inactive)
[8]
  GI50: 17.1 µM (inactive)
[3]
  GI50: 16.1 µM (inactive)
[4]
  GI50: 4.44 µM (inactive)
[5]
  GI50: 2.27 µM (inactive)
[6]
  GI50: 3.56 µM (inactive)

## Cc1cn(CC2=NCC(C)(C)N2)c(=O)[nH]c1=O
[1]
  GI50: > 100 µM (inactive)

## CCOC(=O)Cc1cc(=O)oc2cc(O)ccc12
[1]
  GI50: > 100 µM (inactive)

## O=C(NCCN(CCNC(=O)c1cccc(O)c1O)CCNC(=O)c1cccc(O)c1O)c1cccc(O)c1O [TRENCAM]
[1]
  GI50: 23.2 µM (inactive)

## Cc1cc(C)nc(NS(=O)(=O)c2ccc(Nc3c4ccc(Cl)cc4nc4c(C(=O)Nc5ccc(S(=O)(=O)N=C(N)N)cc5)cccc34)cc2)n1
[2]
  GI50: > 100 µM (inactive)
[3]
  GI50: > 100 µM (inactive)
[4]
  GI50: 66.7 µM (inactive)
[5]
  GI50: > 100 µM (inactive)
[6]
  GI50: 39.9 µM (inactive)

## NC(CCC(=O)O)C(=O)NC(Cc1ccc(N(CCCl)CCCl)cc1)C(=O)O (stereo not given)
[1]
  GI50: > 100 µM (inactive)

## Oc1nc2nnc(COc3ccc(Cl)cc3Cl)n2nc1Cc1ccccc1
[1]
  GI50: > 100 µM (inactive)

## Cn1c(NNc2ccccc2)cc(=O)[nH]c1=O
[1]
  GI50: > 100 µM (inactive)

## COc1cc(/C=C2/SC(c3ccccc3)N(c3ccc(NC(C)=O)cc3)C2=O)cc(OC)c1OC (stereo not given)
[1]
  GI50: > 100 µM (inactive)

## COC(CN(C(=O)c1ccccc1)C1CCC2(SCCS2)c2[nH]c3ccccc3c21)OC (stereo not given)
[1]
  GI50: 13.7 µM (inactive)

## CCCCCCCCCCCCCCCC(=O)OCC1OC(OC)C(NC(=O)N(CCCl)N=O)C(O)C1O (stereo not given)
[1]
  GI50: 28.3 µM (inactive)
[2]
  GI50: 14.7 µM (inactive)
[7]
  GI50: 10.2 µM (inactive)
[8]
  GI50: 32.4 µM (inactive)
[3]
  GI50: 20.3 µM (inactive)
[4]
  GI50: 16.3 µM (inactive)
[5]
  GI50: 22.5 µM (inactive)
[6]
  GI50: 24.5 µM (inactive)

## COC(=O)[C@@H](OC(C)=O)[C@@H](OC(C)=O)c1nnc2ccc(Cl)nn12
[1]
  GI50: > 100 µM (inactive)

## COc1cccc(C=C2N=C(C)N(n3c(-c4ccccc4)nc4ccccc4c3=O)C2=O)c1
[1]
  GI50: > 100 µM (inactive)

## Cc1nc(-c2nc(C)c(C(=O)/C=C/c3ccc([N+](=O)[O-])cc3)s2)sc1C(=O)/C=C/c1ccc([N+](=O)[O-])cc1
[2]
  GI50: > 100 µM (inactive)
[3]
  GI50: > 100 µM (inactive)
[4]
  GI50: > 100 µM (inactive)
[5]
  GI50: > 100 µM (inactive)
[6]
  GI50: > 100 µM (inactive)

## COc1cc2c(c(OC)c1)/C(=C/Sc1ccccc1)C(=O)N(C(C)(C)C)C2
[1]
  GI50: 26 µM (inactive)

## Nc1nc(Cl)cc(NCC2(CO)CCCCC2)n1
[1]
  GI50: > 100 µM (inactive)

## CNC(=O)c1nnn(Cc2ccccc2)c1S
[1]
  GI50: > 100 µM (inactive)

## CCc1nnc(CC)n1-n1c(Cc2ccccc2)n[nH]c1=O
[1]
  GI50: > 100 µM (inactive)

## CCOc1cc(C2SCC(=O)N2c2nc3cc4sc(N5C(=O)CSC5c5ccc(O)c(OCC)c5)nc4cc3s2)ccc1O (stereo not given)
[1]
  GI50: 9.59 µM (inactive)

## O=C1C(c2ccccc2)=C(c2ccccc2)C1(Cl)Cl
[1]
  GI50: 2.47 µM (inactive)

## COC(=O)C1(O)C(c2ccccc2)=NC2(C)CCCC21 (stereo not given)
[1]
  GI50: > 100 µM (inactive)

## C[N+](C)(C)CC1CCC/C1=N\OC(=O)c1ccccc1 (stereo not given)
[2]
  GI50: > 100 µM (inactive)
[8]
  GI50: > 100 µM (inactive)
[3]
  GI50: > 100 µM (inactive)
[4]
  GI50: > 100 µM (inactive)
[5]
  GI50: > 100 µM (inactive)
[6]
  GI50: > 100 µM (inactive)

## COc1ccc(CC2(Cc3ccc(OC)cc3)CCOC2=O)cc1
[2]
  GI50: > 100 µM (inactive)
[4]
  GI50: > 100 µM (inactive)
[5]
  GI50: > 100 µM (inactive)

## CC(C)OCC1CC(CC(=O)Nc2nncs2)C(=O)O1 (stereo not given)
[1]
  GI50: > 100 µM (inactive)

## C=CCSc1nc2ccccc2c(=O)n1Cc1ccco1
[1]
  GI50: > 100 µM (inactive)

## CSC(=N/C=C/c1ccccc1)SC
[1]
  GI50: > 100 µM (inactive)

## NS(=O)(=O)c1ccc(/N=N/c2cc3ccccc3c(C(=O)O)c2O)cc1
[1]
  GI50: 99.1 µM (inactive)

## Cc1c(CNc2ccc(C(=O)NC(CC(=O)O)C(=O)O)cc2)ccc2nc(N)nc(N)c12 (stereo not given)
[1]
  GI50: > 100 µM (inactive)
[2]
  GI50: < 0.01 µM (active)
[7]
  GI50: < 0.01 µM (active)
[8]
  GI50: 0.867 µM (active)
[4]
  GI50: < 0.01 µM (active)
[5]
  GI50: 0.122 µM (active)
[6]
  GI50: > 100 µM (inactive)

## Cc1cc2c(C)nn(Cc3ccccc3)c2c(C(N)=O)c1C
[2]
  GI50: > 100 µM (inactive)
[7]
  GI50: > 100 µM (inactive)
[3]
  GI50: > 100 µM (inactive)
[4]
  GI50: > 100 µM (inactive)
[5]
  GI50: > 100 µM (inactive)
[6]
  GI50: > 100 µM (inactive)
